In publication PMC9102017, “A Structure—Activity Relationship Study of the Inhibition of α-Amylase by Benzoic Acid and Its Derivatives” (Nutrients, 2022):
“And” between values parts separate entries of the source, which are not always exact repeats. Equal entries are not always repeated. Where two headings read alike, the source gives them in different places.

Tests used:
[1] = target: T1, Porcine pancreatic α-amylase (Sus scrofa, UniProt P00690); assay: In vitro α-amylase inhibition assay (starch/DNS, absorbance at 540 nm); type: biochemical; conditions: for IC50: 0.2 M potassium phosphate buffer pH 6.8, 37 °C, mean ± SD, triplicate, read-out: IC50 Values against α-Amylase (converted); for inhibited α-amylase more than the analogue without the 2-hydroxyl group: compared with 4-hydroxybenzoic acid (Group 1) or 3,4-dihydroxybenzoic acid (Group 2), Figure 1
T1 construct: purchased Sigma-Aldrich Chemical Co. (St. Louis, MO, USA) A3176
T1 sequence (P00690 16-511): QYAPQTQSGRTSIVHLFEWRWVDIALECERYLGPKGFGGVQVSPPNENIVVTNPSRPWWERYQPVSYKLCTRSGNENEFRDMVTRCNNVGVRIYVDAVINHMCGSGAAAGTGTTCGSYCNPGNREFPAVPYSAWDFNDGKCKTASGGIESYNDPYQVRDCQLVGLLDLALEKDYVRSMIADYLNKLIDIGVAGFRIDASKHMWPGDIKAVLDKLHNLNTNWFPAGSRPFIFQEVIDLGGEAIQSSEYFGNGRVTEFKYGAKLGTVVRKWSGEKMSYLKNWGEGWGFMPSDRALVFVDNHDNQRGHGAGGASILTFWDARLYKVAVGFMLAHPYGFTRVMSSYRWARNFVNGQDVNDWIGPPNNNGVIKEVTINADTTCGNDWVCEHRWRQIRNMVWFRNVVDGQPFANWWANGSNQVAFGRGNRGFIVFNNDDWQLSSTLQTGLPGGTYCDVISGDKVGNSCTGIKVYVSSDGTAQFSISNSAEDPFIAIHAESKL
Method: The α-amylase inhibition assay was adapted from Phan et al. with slight modifications. In order to simulate the small intestine conditions, a buffer pH of 6.8 and an incubation temperature of 37 °C were used. Porcine pancreatic α-amylase was dissolved in 0.2 M potassium phosphate buffer (pH 6.8). Phenolic acid solutions were prepared in 80% DMSO. […] An aliquot of 50 μL of phenolic acid solution (10, 20, 30, 40 and 50 mM) was mixed with 400 μL of 0.2 M potassium phosphate buffer (pH 6.8 with 7 mM NaCl) in a 2 mL tube. After adding 100 μL of the enzyme solution (0.5 unit/mL), the tube was incubated at 37 °C for 5 min. Subsequently, 450 μL of the cooked soluble starch solution (5 mg/mL) was added to initiate the reaction at 37 °C for 20 min, followed by the addition of 500 μL of DNS reagent, and then the tubes were boiled for 15 min at 100 °C to inactivate the enzyme. A total of 200 μL of the reaction solution was transferred to a 96-well plate and the absorbance was measured at 540 nm using a microplate reader (Tecan Infinite 200 PRO; Tecan, Männedorf, Zürich, Switzerland). All of the samples were prepared and measured in triplicate. The inhibition rate was calculated using the following formula: (1) Inhibition(%)={1−A[sample]−A[blank]/A[control+]−A[control−]}×100 where:
A [control+] is absorbance at 100% enzyme activity (buffer with starch and enzyme);
A [control−] is starch background absorbance (buffer and starch without enzyme);
A [sample] is test sample absorbance (buffer with enzyme, starch and inhibitor);
A [blank] is inhibitor and starch background absorbance (a test sample without enzyme).
The inhibition rates were plotted against the logarithmic values of six concentrations of the test inhibitor and a non-linear regression analysis was employed to generate a dose-response curve and calculate the IC50 values (mM and mg/mL).

α-amylase = conditions: cited from earlier work
[2] = lower buffer concentration (0.02 M) than in this study, read-out: IC50 previously reported
[3] = recent studies, read-out: IC50 for α-amylase

IC50 [1] | SMILES | IC50 (α-amylase; [2]) [mM] | IC50 (α-amylase; [3]) [mM] | inhibited α-amylase more than the analogue without the 2-hydroxyl group [1] [%]
26 mM | Cc1cc(C(=O)O)cc(C)c1O [Compound 11, 4-Hydroxy-3,5-dimethylbenzoic acid] | – | – | –
52.3 mM | Cc1ccc(C(=O)O)cc1 [Compound 8, 4-Methylbenzoic acid] | – | – | –
23.4 mM | Cc1cc(O)ccc1C(=O)O [Compound 9, 4-Hydroxy-2-methylbenzoic acid] | – | – | –
37.8 mM | COc1cc(C(=O)O)cc(O)c1O [Compound 16, 3,4-Dihydroxy-5-methoxybenzoic acid] | – | – | –
– | O=C(O)c1cc(O)ccc1O [2,5-dihydroxybenzoic acid, reference compound] | – | 0.298 | –
20.6 mM | O=C(O)c1c(O)cc(O)cc1O [Compound 6, 2,4,6-Trihydroxybenzoic acid] | – | – | –
18.1 mM | Cc1cc(O)cc(O)c1C(=O)O [Compound 12, 2,4-Dihydroxy-6-methylbenzoic acid] | – | – | –
19.3 mM | O=C(O)c1ccc(O)cc1O [Compound 3, 2,4-Dihydroxybenzoic acid] | – | – | 33.31
25.7 mM | O=C(O)c1ccc(O)cc1 [Compound 2, 4-Hydroxybenzoic acid] | – | – | –
44.2 mM and 44.1 mM | COc1ccc(C(=O)O)cc1 [Compound 13, 4-Methoxybenzoic acid] | – | – | –
48.9 mM | COc1cc(O)ccc1C(=O)O [Compound 14, 4-Hydroxy-2-methoxybenzoic acid] | – | – | –
28.6 mM | Cc1cc(C(=O)O)ccc1O [Compound 10, 4-Hydroxy-3-methylbenzoic acid] | – | – | –

SMILES | IC50 [1] | IC50 (α-amylase; [2]) [mM] | IC50 (α-amylase; [3]) [mM] | inhibited α-amylase more than the analogue without the 2-hydroxyl group [1] [%]
O=C(O)c1ccc(O)c(O)c1 [Compound 4, 3,4-Dihydroxybenzoic acid] | 25.4 mM | 11.5 ± 0.45 | – | –
COc1cc(C(=O)O)cc(OC)c1O [Compound 17, 4-Hydroxy-3,5-dimethoxybenzoic acid] | 32.2 mM | – | 44.8 | –
COc1cc(C(=O)O)ccc1O [Compound 15, 4-Hydroxy-3-methoxybenzoic acid] | 24.4 mM | – | 27.9 | –
O=C(O)c1cc(O)c(O)c(O)c1 [Compound 7, 3,4,5-Trihydroxybenzoic acid] | 26.1 mM | 7.46 ± 0.24 | 1.25 | –
O=C(O)c1ccccc1 [Compound 1, Benzoic acid] | 45.2 mM | – | – | –
O=C(O)c1ccc(O)c(O)c1O [Compound 5, 2,3,4-Trihydroxybenzoic acid] | 17.3 mM | – | 33.3 | 46.56
